Source: patent publication US9271984B2, “Treatment of type 1 diabetes” (POXEL, priority 2010, dated 2016)

Tested on: rat pancreatic islets
Assay: Protective effect on beta cell death: quantification of cytoplasmic nucleosomes (apoptosis, Cell Death Detection ELISA) in cultured rat islets with or without cytokine cocktail
Type: cell-based
Description: Male Wistar rat islets (Elevage Janvier, Le Genest-St-Isle, France) were isolated using collagenase (Serva, Heidelberg, Germany) and cultured in RPMI at 11 mM glucose (Invitrogen, CA, USA) supplemented with 10% FCS (Fetal Calf Serum), 100 Units/ml penicillin, 100 μg/ml streptomycin and 100 μg/ml gentamycin in low-attachment 24-well plates (Corning, NY, USA). These islets were incubated with a cocktail of rat cytokines (TNF-alpha, IL-1beta and INF-gamma each at 2 ng/ml) for 24 hours (Brun T. et al., 2004 and 2007). […] Aliquots of the medium were used to measure insulin accumulated during the culture period using immune enzyme assay kits (Brunchwig, Basel, Switzerland). Furthermore, quantification of cytoplasmic nucleosomes, a direct indicator of apoptosis, was performed with the Cell Death Detection ELISA kit (Roche, Basel, Switzerland). Each condition was tested with 50 rat islets in duplicate and four independent experiments were performed. The results are provided as mean+/−sem and statistical analyses were performed using one-way ANOVA with Bonferroni and Dunnett post-hoc tests.
The conditions without cytokines allowed the analysis of the specific effect of the compound on islets while the combination of the drug with cytokines allowed the study of the effect of Imeglimin on islets under an inflammatory stress. To measure cell death in islets, quantification of cytoplasmic nucleosomes in islet cells, a consequence of DNA fragmentation during apoptosis (Robertson et al., 2000), was performed. […] Furthermore, a negative control and a positive control were added to the conditions with and without cytokines to test the effectiveness of the protocol. […] The results of the quantification of cell death for each condition are presented on FIG. 1.

[1] = with cytokines (TNF-alpha, IL-1beta, INF-gamma each 2 ng/ml, 24 hours), 100 μM

| Molecule | protective properties against apoptosis on cultured rat islets (basal and inflammation-like apoptosis) | protection of islets from the cytokine stress (both doses (100 μM and 1 mM), cytokine cocktail 24 hours) | less apoptosis than cytokine-stressed islets [1] | less apoptosis than untreated islets [1] | less apoptosis than cytokine-stressed islets (with cytokines, 1 mM) | less apoptosis than untreated islets (with cytokines, 1 mM) | potency relative to Exendin-4 (more potent) (with cytokines, lower concentration tested (100 μM) vs Exe-4 10 nM) | level of protection relative to the Exendin-4 level (without cytokines, 100 μM vs Exe-4 10 nM) | less apoptosis than untreated islets (without cytokines, 100 μM, 24 hours culture) | drop in apoptosis vs cytokine-stressed islets (with cytokines, Exe-4 10 nM) | drop in apoptosis vs untreated islets (with cytokines, Exe-4 10 nM) | decrease in cell death (without cytokines, Exe-4 10 nM, vs untreated islets) |
| --- | --- | --- | --- | --- | --- | --- | --- | --- | --- | --- | --- | --- |
| CC1N=C(N)NC(N(C)C)=N1.Cl (single isomer, unassigned; (+)) [(+)-2-amino-3,6-dihydro-4-dimethylamino-6-methyl-1,3,5-triazine hydrochloride] | protective properties against basal and inflammation-like apoptosis | completely protected | 37% | 29% | 25% | 16% | ~50% | two thirds | 10% | – | – | – |
| Exendin-4 [reference compound] | – | – | – | – | – | – | – | – | – | 29% | 20% | 16% |
